Reference: ChEMBL document CHEMBL1909046, “DrugMatrix in vitro pharmacology data”

How the values were obtained:
[1] = molecular target: T1, 5-hydroxytryptamine receptor 2C (Homo sapiens, UniProt P28335); test: DRUGMATRIX: Serotonin (5-Hydroxytryptamine) 5-HT2C radioligand binding (ligand: [3H] Mesulergine); format: cell membranes, CHO-K1, Membrane; conditions: Not Active = under 50% inhibition at 10 µM
T1 sequence (P28335 whole entry): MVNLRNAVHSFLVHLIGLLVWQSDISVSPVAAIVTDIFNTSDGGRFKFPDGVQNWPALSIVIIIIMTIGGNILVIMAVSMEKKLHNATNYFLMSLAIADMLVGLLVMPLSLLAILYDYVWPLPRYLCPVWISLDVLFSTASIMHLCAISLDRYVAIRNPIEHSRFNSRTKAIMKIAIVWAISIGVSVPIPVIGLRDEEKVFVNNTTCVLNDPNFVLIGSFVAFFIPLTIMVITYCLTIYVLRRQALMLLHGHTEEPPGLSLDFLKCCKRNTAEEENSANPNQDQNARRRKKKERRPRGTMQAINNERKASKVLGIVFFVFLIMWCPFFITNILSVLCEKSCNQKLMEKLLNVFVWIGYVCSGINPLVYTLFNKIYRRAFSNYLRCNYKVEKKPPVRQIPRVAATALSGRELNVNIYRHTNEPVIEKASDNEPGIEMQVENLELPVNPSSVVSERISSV

Cannabinoid receptor 1 = Cannabinoid receptor 1 (Homo sapiens, UniProt P21554); format: cell membranes, Membrane; conditions: chem-1; also: in other assays of this panel Not Active means under 50% inhibition at 10 µM
[2] = molecular target: T2, Neuropeptide Y receptor type 1 (Homo sapiens, UniProt P25929); format: cell membranes, Membrane; conditions: sk-n-mc; also: in other assays of this panel Not Active means under 50% inhibition at 10 µM
T2 sequence (P25929 whole entry): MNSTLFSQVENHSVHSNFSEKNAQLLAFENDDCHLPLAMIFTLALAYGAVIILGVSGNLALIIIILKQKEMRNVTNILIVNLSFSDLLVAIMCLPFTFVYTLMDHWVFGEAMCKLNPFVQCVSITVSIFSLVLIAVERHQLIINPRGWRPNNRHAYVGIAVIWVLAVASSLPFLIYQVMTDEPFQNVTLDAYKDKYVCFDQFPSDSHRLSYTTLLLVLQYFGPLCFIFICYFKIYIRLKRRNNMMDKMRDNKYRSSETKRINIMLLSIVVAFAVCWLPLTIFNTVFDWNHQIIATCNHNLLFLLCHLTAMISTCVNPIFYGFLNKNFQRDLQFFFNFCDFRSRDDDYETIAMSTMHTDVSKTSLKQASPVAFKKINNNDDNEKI

Progesterone receptor = molecular target: T3, Progesterone receptor (Bos taurus, UniProt Q690N0); test: DRUGMATRIX: Progesterone radioligand binding (ligand: [3H] R-5020); format: tissue-based, Uterus; conditions: Not Active = under 50% inhibition at 10 µM
T3 sequence (Q690N0 whole entry): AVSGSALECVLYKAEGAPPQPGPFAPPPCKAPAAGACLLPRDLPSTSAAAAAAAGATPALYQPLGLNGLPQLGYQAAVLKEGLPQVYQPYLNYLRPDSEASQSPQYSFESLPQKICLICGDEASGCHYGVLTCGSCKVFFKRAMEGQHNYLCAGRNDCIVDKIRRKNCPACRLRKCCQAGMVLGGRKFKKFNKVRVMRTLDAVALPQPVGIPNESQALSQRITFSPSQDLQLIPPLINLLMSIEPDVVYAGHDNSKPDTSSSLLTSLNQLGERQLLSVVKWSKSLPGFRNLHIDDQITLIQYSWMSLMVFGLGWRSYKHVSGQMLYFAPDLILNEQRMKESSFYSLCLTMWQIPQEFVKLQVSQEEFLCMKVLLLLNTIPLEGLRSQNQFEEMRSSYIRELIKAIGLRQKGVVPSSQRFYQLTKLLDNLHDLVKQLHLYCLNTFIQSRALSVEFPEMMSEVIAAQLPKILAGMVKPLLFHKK

[3] = molecular target: C-C chemokine receptor type 2 (Homo sapiens, UniProt P41597); format: cell membranes, CHO-K1, Membrane; conditions: cho-k1; also: in other assays of this panel Not Active means under 50% inhibition at 10 µM
[4] = DRUGMATRIX: beta-Lactamase enzyme inhibition (substrate: Nitrocefin); parameters: species or system Bacillus cereus; conditions: Not Active = under 50% inhibition at 10 µM
Caspase-1 = molecular target: T4, Caspase-1 (Homo sapiens, UniProt P29466); parameters: species or system Escherichia coli;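 also: Caspase-1 enzyme inhibition assay with a peptide substrate; in other assays of this panel Not Active means under 50% inhibition at 10 µM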
T4 sequence (P29466 whole entry): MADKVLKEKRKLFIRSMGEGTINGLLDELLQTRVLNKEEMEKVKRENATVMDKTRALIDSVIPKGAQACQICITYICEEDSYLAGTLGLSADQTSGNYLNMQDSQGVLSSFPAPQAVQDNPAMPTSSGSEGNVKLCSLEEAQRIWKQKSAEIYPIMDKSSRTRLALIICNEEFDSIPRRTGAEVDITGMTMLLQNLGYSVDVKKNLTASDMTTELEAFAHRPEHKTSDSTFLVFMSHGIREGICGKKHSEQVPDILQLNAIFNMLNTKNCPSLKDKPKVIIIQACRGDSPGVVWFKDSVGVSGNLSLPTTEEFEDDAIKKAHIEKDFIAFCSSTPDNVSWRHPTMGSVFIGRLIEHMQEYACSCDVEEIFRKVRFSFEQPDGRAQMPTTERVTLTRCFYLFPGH

C-C chemokine receptor type 2, sequence (P41597 whole entry): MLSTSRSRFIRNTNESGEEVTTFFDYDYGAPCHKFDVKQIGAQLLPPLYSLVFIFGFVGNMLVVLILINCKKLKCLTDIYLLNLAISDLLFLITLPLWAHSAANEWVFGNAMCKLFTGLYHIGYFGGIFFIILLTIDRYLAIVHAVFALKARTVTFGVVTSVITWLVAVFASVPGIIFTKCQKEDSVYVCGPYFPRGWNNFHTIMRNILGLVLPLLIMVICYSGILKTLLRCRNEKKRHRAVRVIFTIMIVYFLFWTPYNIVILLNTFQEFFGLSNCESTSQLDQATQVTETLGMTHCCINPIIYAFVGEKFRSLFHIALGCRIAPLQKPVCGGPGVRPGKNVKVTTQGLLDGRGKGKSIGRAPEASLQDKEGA
Cannabinoid receptor 1, sequence (P21554 whole entry): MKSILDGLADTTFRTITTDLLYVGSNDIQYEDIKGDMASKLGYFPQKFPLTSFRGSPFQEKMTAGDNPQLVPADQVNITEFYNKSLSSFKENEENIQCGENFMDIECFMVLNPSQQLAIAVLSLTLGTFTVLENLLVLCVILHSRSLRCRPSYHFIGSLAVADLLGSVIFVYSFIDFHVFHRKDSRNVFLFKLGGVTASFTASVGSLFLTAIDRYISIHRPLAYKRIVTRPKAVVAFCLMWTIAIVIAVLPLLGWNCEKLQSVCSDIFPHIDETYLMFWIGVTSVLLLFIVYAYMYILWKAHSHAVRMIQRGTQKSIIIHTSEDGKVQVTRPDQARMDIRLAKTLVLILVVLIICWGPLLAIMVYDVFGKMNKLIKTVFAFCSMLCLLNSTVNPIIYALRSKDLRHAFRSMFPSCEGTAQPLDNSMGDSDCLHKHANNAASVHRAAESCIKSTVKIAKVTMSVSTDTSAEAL

Compound | IC50 ([1]; read-out: IC50) [nM] | Ki ([1]; read-out: Ki) [nM] | IC50 (Cannabinoid receptor 1) | IC50 [2] | IC50 (Progesterone receptor) | IC50 [3] | IC50 [4] | Ki [4] | IC50 (Caspase-1) | IC50 ([1]; cho-k1) | Ki ([1]; cho-k1) | Ki (Cannabinoid receptor 1) | Ki [2] | Ki (Progesterone receptor) | Ki [3] | Ki (Caspase-1) | IC50 (Progesterone receptor; read-out: IC50) [nM] | Ki (Progesterone receptor; read-out: Ki) [nM]
CN1C[C@H](C(=O)N[C@]2(C)O[C@@]3(O)[C@@H]4CCCN4C(=O)[C@H](Cc4ccccc4)N3C2=O)C[C@@H]2c3cccc4[nH]cc(c34)C[C@H]21 [DIHYDROERGOTAMINE] | 90 | 47 | Not Active | Not Active | Not Active | Not Active | Not Active | Not Active | Not Active |  |  |  |  |  |  |  |  | 
CC(CCc1ccc(O)cc1)NCCc1ccc(O)c(O)c1 (stereo not drawn) [DOBUTAMINE] |  |  | Not Active | Not Active | Not Active | Not Active | Not Active | Not Active | Not Active | Not Active |  |  |  |  |  |  |  | 
POLYVINYL ALCOHOL |  |  | Not Active | Not Active | Not Active | Not Active | Not Active | Not Active | Not Active | Not Active | Not Active | Not Active | Not Active | Not Active | Not Active | Not Active |  | 
CS(=O)(=O)OCCCCOS(C)(=O)=O [BUSULFAN] |  |  | Not Active | Not Active | Not Active | Not Active | Not Active | Not Active | Not Active | Not Active |  |  |  |  |  |  |  | 
CC[C@H]1OC(=O)[C@H](C)[C@@H](O[C@H]2C[C@@](C)(OC)[C@@H](O)[C@H](C)O2)[C@H](C)[C@@H](O[C@@H]2O[C@H](C)C[C@H](N(C)C)[C@H]2O)[C@](C)(O)C[C@@H](C)CN(C)[C@H](C)[C@@H](O)[C@]1(C)O [AZITHROMYCIN] |  |  | Not Active | Not Active | Not Active | Not Active | Not Active | Not Active | Not Active | Not Active |  |  |  |  |  |  |  | 
CC(=O)OCC(CCn1cnc2cnc(N)nc21)COC(C)=O [FAMCICLOVIR] |  |  | Not Active | Not Active | Not Active | Not Active | Not Active | Not Active | Not Active | Not Active |  |  |  |  |  |  |  | 
C/C=C\c1ccc(O)c(OC)c1 [ISOEUGENOL] |  |  | Not Active | Not Active | Not Active | Not Active | Not Active | Not Active | Not Active | Not Active |  |  |  |  |  |  |  | 
O=C(c1ccccc1Cl)N1CCC(Cc2ccccc2)CC1 |  |  | Not Active | Not Active | Not Active | Not Active | Not Active | Not Active | Not Active | Not Active |  |  |  |  |  |  |  | 
Cc1c(F)c(N2CCNC(C)C2)cc2c1c(=O)c(C(=O)O)cn2C1CC1 (stereo not drawn) [GREPAFLOXACIN] |  |  | Not Active | Not Active | Not Active | Not Active | Not Active | Not Active | Not Active | Not Active |  |  |  |  |  |  |  | 
COC(=O)c1ccccc1O [METHYL SALICYLATE] |  |  | Not Active | Not Active | Not Active | Not Active | Not Active | Not Active | Not Active | Not Active |  |  |  |  |  |  |  | 
O=C(O)c1cccnc1 [NIACIN] |  |  | Not Active | Not Active | Not Active | Not Active | Not Active | Not Active | Not Active | Not Active |  |  |  |  |  |  |  | 
CC[C@H](C)C(=O)O[C@H]1C[C@@H](C)C=C2C=C[C@H](C)[C@H](CC[C@@H]3C[C@@H](O)CC(=O)O3)[C@H]21 [LOVASTATIN] |  |  | Not Active | Not Active | Not Active | Not Active | Not Active | Not Active | Not Active | Not Active |  |  |  |  |  |  |  | 
COBALT(II) ACETYLACETONATE |  |  | Not Active | Not Active | Not Active | Not Active | Not Active | Not Active | Not Active | Not Active | Not Active | Not Active | Not Active | Not Active | Not Active | Not Active |  | 
CN(C(=O)CCCOc1ccc2[nH]c(=O)ccc2c1)C1CCCCC1 [CILOSTAMIDE] |  |  | Not Active | Not Active | Not Active | Not Active | Not Active | Not Active | Not Active | Not Active |  |  |  |  |  |  |  | 
INSULIN HUMAN |  |  | Not Active | Not Active | Not Active | Not Active | Not Active | Not Active | Not Active | Not Active | Not Active | Not Active | Not Active | Not Active | Not Active | Not Active |  | 
O=C(O)c1cc(=O)c2c(OCC(O)COc3cccc4oc(C(=O)O)cc(=O)c34)cccc2o1 [CROMOLYN] |  |  | Not Active | Not Active | Not Active | Not Active | Not Active | Not Active | Not Active | Not Active |  |  |  |  |  |  |  | 
Cc1cccc(Nc2cc(Cl)nc(SCC(=O)O)n2)c1C [PIRINIXIC ACID] |  |  | Not Active | Not Active | Not Active | Not Active | Not Active | Not Active | Not Active | Not Active |  |  |  |  |  |  |  | 
CC[C@H]1OC(=O)[C@H](C)[C@@H](O[C@H]2C[C@@](C)(OC)[C@@H](O)[C@H](C)O2)[C@H](C)[C@@H](O[C@@H]2O[C@H](C)C[C@H](N(C)C)[C@H]2O)[C@](C)(OC)C[C@@H](C)C(=O)[C@H](C)[C@@H](O)[C@]1(C)O [CLARITHROMYCIN] |  |  | Not Active | Not Active | Not Active | Not Active | Not Active | Not Active | Not Active | Not Active |  |  |  |  |  |  |  | 
CCc1oc2ccccc2c1C(=O)c1cc(Br)c(O)c(Br)c1 [BENZBROMARONE] |  |  | Not Active | Not Active | Not Active | Not Active | Not Active | Not Active | Not Active | Not Active |  |  |  |  |  |  |  | 
CC[C@]1(O)CC[C@H]2[C@@H]3CCC4=CCCC[C@@H]4[C@H]3CC[C@@]21C |  |  | Not Active | Not Active |  | Not Active | Not Active | Not Active | Not Active | Not Active |  |  |  |  |  |  | 201 | 26
CC(C)(Oc1ccc(C2CC2(Cl)Cl)cc1)C(=O)O (stereo not drawn) [CIPROFIBRATE] |  |  | Not Active | Not Active | Not Active | Not Active | Not Active | Not Active | Not Active | Not Active |  |  |  |  |  |  |  | 
